In patent US8323971B2, “Differentiation of pluripotent cells into primary germ layer progenitors” (Cambridge Enterprise Limited, priority 2006, dated 2012):

Test system: H9 hESCs
Assay: Screening of culture conditions by immunostaining for Oct4, Sox2, Brachyury, Sox17
Type: cell-based, human
Set-up: key to Pluripotency Oct4, fraction of expressing cells / Neuro Sox2, fraction of expressing cells / Meso Brachyury, fraction of expressing cells / Endo Sox17, fraction of expressing cells: 0 for absence of expression; VL for expressing cells <1%; L for expressing cells <5%; H for expressing cells >10%; VH for expressing cells >50%
Settings: Conditions CDM (CDM-BSA), 7 days or more
Protocol: Table 2 and Table 3 show the screening of culture conditions for inducing mesoendoderm differentiation into CDM. H9 hESCs were grown for 7 days or more in CDM-BSA or CDM-PVA supplemented with different growth factors (Activin, BMP4, FGF2) or inhibitors (SU5402 for FGF, SB431542 for Activin/Nodal/TGFβ, BIO for βCatenin). Then, immunostaining analysis were used to determine the fractions of cells expressing the pluripotent marker Oct-4, neuroectoderm marker Sox2, the mesoderm marker Brachyury, and the endoderm marker Sox17. The quantities of expressing cells were divided into five arbitrary categories. 0 for absence of expression, VL for expressing cells <1%, L for expressing cells <5%, H for expressing cells >10%, VH for expressing cells >50%. IN red are indicated the conditions allowing the generation of mesendoderm cells expressing Brachyury or Sox17.
HESCs or differentiated progenitors were fixed for 20 minutes at 4° C. in 4% paraformaldehyde (PFA) and then washed three times in PBS. Cells were incubated for 20 minutes at room temperature in PBS containing 10% goat serum (Serotec) and subsequently incubated over night at 4° C. with primary antibody diluted in 1% goat serum in PBS as follows: SSEA-3 (1:100, Santa Cruz), SSAE-1 (1:25), Tra-1-60 (1:100, Santa CruZ), Oct-4 (1:100, Abcam ab18976 or SantaCruz), Sox2 (1:100, Abcam ab15830), Alkaline Phophatase (1:50, Abcam ab17989), Brachyury (1:100, Abcam ab20680 or RandD systems), Sox17 (RandD systems), FoxA2 (1:50, Abcam ab5074), GATA4 (1:250, Santa CruZ), GATA6 (1:200, Abcam ab22600 or Santa Cruz), Vent-2 (1:100, Abcam ab20913), Goosecoid (1:25, Abcam ab21059), Wnt3A (1:100, Abcam ab19925), CXCR4 (1:100, RanD Systems or Pharmingen). Nestin (1:200, Abcam ab5968), NCAM (1:100, Abcam ab8077), GFAP (ZZ), Neurofilament (ZZ), βIII Tubulin (ZZ), Glutamate (ZZ), N-Cadherin (1:100, Abcam ab18203 or ZZ). Cells were then washed three times in PBS and incubated with fluorescein-Isothiocyanate-conjugated anti-mouse IgG or IgM (Sigma 1:200 in 1% goat serum in PBS) or rat IgM (Jackson laboratory 1:300 in goat serum in PBS) or rabbit IgG (Jackson laboratory 1:200 in donkey serum in PBS) for two hours at room temperature. Unbound secondary antibody was removed by 3 washes in PBS. Hoechst 33258 was added to the first wash (Sigma 1:10000).
We then developed a method for inducing differentiation of hESCs into the three primary germ layers. Culture conditions inductive for mesoderm, endoderm and neuroectoderm were screened using an approach based on immunostaining analyses for the expression of proteins specifically expressed by pluripotent cells (Oct-4), neuroectoderm progenitors (Sox2 in absence of Oct4), endoderm progenitors (Sox17) and mesoderm progenitors (Brachyury). In summary, hESCs grown in CDM (CDM-BSA or hu-CDM) were plated on fibronectin in CDM-BSA/AF or CDM-PVA/AF. Then cocktails of growth factors (BMP4, FGF2, Activin) or chemical inhibitors (SU5402, SB431542) were added at different times and for different periods. After 7 to 10 days treatment, cells were fixed and then the expression of Oct-4/Sox2, Sox17 and Brachyury was analysed using immunostaining. The effect of three growth factors on the differentiation of hESCs into the primary germ layers was systematically analysed in our screen. We also studied the function of FGF and Activin signalling pathways in the maintenance of the pluripotent state by analysing the effect of the SU5402, a chemical inhibitor of FGF receptors, and the SB431542, a chemical inhibitor of Activin/TGFβ receptors.

BMP4: Bone Morphogenetic Protein 4 growth factor
0: Endo Sox17, fraction of expressing cells | Meso Brachyury, fraction of expressing cells | Neuro Sox2, fraction of expressing cells | Pluripotency Oct4, fraction of expressing cells
